Experimental data as given in US20250171431A1, “HETEROCYCLIC INHIBITORS OF IGF-1R FOR TREATMENT OF DISEASE” (HORIZON THERAPEUTICS IRELAND DAC, priority 2023, published 2025).

The molecules below were run against IGF-1R (Homo sapiens (Human), UniProt P08069) (assay: Example B-1: IGF-1R Assay (PC3 cells, IGF1 stimulation, AlphaLISA)). Conditions: 200 ng/mL IGF1 stimulation, read-out: Biological Activity against IGF-1R IC50.
Format: cell-based
Outline: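 PC3 cells were serum-starved 2 h, treated with serially diluted compounds for 2 h, then stimulated with IGF1 (200 ng/mL final) for 30 min. Lysates were read by AlphaLISA; % inhibition was calculated relative to vehicle and EC80 controls, with IC50 values binned into ranges.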

IGF-1R, sequence (P08069 31-1367): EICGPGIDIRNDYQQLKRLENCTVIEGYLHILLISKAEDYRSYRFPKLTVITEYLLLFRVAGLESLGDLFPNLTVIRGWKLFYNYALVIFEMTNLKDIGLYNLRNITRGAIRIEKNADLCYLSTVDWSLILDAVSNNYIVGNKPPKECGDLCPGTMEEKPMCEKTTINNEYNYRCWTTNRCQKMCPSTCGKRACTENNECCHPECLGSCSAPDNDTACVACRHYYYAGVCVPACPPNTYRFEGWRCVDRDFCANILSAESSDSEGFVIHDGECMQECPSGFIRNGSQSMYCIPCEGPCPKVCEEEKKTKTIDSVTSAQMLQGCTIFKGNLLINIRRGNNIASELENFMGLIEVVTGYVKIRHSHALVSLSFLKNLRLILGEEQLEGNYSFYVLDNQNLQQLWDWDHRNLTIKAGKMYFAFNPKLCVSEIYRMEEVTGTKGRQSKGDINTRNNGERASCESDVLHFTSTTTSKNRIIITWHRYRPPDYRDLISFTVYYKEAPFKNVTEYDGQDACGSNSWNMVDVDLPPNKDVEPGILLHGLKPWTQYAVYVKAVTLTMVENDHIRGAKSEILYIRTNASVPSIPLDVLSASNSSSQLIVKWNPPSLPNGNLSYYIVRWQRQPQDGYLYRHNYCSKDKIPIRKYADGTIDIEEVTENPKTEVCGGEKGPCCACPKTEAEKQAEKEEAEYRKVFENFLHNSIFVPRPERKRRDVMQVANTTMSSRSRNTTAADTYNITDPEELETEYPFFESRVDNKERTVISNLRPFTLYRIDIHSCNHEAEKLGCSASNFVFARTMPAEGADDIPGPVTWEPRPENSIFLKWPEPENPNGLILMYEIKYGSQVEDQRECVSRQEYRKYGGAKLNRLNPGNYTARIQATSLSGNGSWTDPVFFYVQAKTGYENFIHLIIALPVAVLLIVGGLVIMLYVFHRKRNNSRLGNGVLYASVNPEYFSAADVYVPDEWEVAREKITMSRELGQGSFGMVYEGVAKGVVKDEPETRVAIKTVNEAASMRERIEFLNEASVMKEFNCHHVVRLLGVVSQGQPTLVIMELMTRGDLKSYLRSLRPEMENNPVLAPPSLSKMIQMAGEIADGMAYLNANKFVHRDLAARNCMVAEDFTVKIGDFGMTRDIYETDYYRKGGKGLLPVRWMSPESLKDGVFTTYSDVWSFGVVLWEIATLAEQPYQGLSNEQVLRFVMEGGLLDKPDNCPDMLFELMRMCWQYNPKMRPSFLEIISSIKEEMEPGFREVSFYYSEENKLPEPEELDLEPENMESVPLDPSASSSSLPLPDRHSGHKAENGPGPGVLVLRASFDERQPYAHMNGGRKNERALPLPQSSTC

Molecule | IC50
COc1cc(Nc2nccc(Nc3cc4cccc(F)c4[nH]c3=O)n2)cnc1N1CCOCC1 [Compound 241, 8-fluoro-3-[2-(5-methoxy-6-morpholino-3-pyridylamino)-4-pyrimidinylamino]-1,2-dihydro-2-quinolinone] | ≤ 500 nM
COc1cc(Nc2nccc(Nc3cc4ccccc4nc3OC)n2)ccc1OCCCN1CCCCC1 [Compound 108, 2-[3-methoxy-4-(3-piperidinopropoxy)phenylamino]-4-(2-methoxy-3-quinolylamino)pyrimidine] | ≤ 500 nM
COc1cc(Nc2nccc(Nc3ccc4c(O)nccc4c3)n2)ccc1O[C@H]1C[C@@H](N(C)C)C1 [Compound 266, 6-(2-{3-methoxy-4-[(1s,3s)-3-(dimethylamino)cyclobutoxy]phenylamino}-4-pyrimidinylamino)-1-isoquinolinol] | ≤ 500 nM
COc1cc(Nc2nccc(Nc3cnc4cncc(F)c4c3)n2)ccc1O[C@H]1C[C@@H](N(C)C)C1 [Compound 88, N2-(4-((1s,3s)-3-(dimethylamino)cyclobutoxy)-3-methoxyphenyl)-N4-(5-fluoro-1,7-naphthyridin-3-yl)pyrimidine-2,4-diamine] | ≤ 500 nM
Clc1ccc2ncc(Nc3ccnc(Nc4ccc(OCCCN5CCOCC5)cc4)n3)cc2c1 [Compound 401, 4-(6-chloro-3-quinolylamino)-2-[p-(3-morpholinopropoxy)phenylamino]pyrimidine] | ≤ 500 nM
COc1cc(Nc2nccc(Nc3cnc4c(c3)SCCC4)n2)ccc1O[C@H]1C[C@@H](N(C)C)C1 [Compound 366, 4-(3,4-dihydro-2H-1-thia-5-azanaphth-7-ylamino)-2-{3-methoxy-4-[(1s,3s)-3-(dimethylamino)cyclobutoxy]phenylamino}pyrimidine] | ≤ 500 nM
COc1cc(Nc2nccc(Nc3cc4c(nc3C(N)=O)CCCC4)n2)ccc1O[C@H]1C[C@@H](N(C)C)C1 [Compound 256, 3-(2-{3-methoxy-4-[(1s,3s)-3-(dimethylamino)cyclobutoxy]phenylamino}-4-pyrimidinylamino)-5,6,7,8-tetrahydro-2-quinolinecarboxamide] | ≤ 500 nM
COc1cc(Nc2nccc(Nc3cc4cc(F)ccc4[nH]c3=O)n2)ccc1O[C@H]1C[C@@H](N(C)C)C1 [Compound 121, 6-fluoro-3-(2-{3-methoxy-4-[(1s,3s)-3-(dimethylamino)cyclobutoxy]phenyl-amino}-4-pyrimidinylamino)-1,2-dihydro-2-quinolinone] | ≤ 500 nM
COc1cc(Nc2nccc(Nc3cc4cccc(F)c4[nH]c3=O)n2)ccc1O[C@H]1C[C@@H](N(C)C)C1 [Compound 120, 8-fluoro-3-(2-{3-methoxy-4-[(1s,3s)-3-(dimethylamino)cyclobutoxy]phenyl-amino}-4-pyrimidinylamino)-1,2-dihydro-2-quinolinone] | ≤ 500 nM
Oc1ccc2cc(Nc3ccnc(Nc4ccc(OCCCN5CCOCC5)cc4)n3)cnc2c1 [Compound 408, 3-{2-[p-(3-morpholinopropoxy)phenylamino]-4-pyrimidinylamino}-7-quinolinol] | ≤ 500 nM
COc1cc(Nc2nccc(Nc3cnc4cc(F)cc(F)c4c3)n2)ccc1O[C@H]1C[C@@H](N(C)C)C1 [Compound 118, 4-(5,7-difluoro-3-quinolylamino)-2-{3-methoxy-4-[(1s,3s)-3-(dimethylamino)cyclobutoxy]phenylamino}pyrimidine] | ≤ 500 nM
COc1cc(Nc2nccc(Nc3cnc4ccc(OC(F)(F)F)cc4c3)n2)ccc1OCCCN1CCCCC1 [Compound 6, 2-[3-methoxy-4-(3-piperidinopropoxy)phenylamino]-4-(6-trifluoromethoxy-3-quinolylamino)pyrimidine] | ≤ 500 nM
COc1cc(Nc2nccc(Nc3cnc4c(c3)OCCO4)n2)cnc1O[C@H]1C[C@@H](N(C)C)C1 [Compound 276, 4-(2,3-dihydro-1,4-dioxa-5-aza-7-naphthylamino)-2-{5-methoxy-6-[(1s,3s)-3-(dimethylamino)cyclobutoxy]-3-pyridylamino}pyrimidine] | ≤ 500 nM
7-(2-{3-methoxy-4-[(1s,3s)-3- (dimethylamino)cyclobutoxy] phenylamino}-4- pyrimidinylamino)-2,2- dimethyl-2,4-dihydro-1-oxa- 4,5-diaza-3-naphthalenone [Compound 288] | 500 to 2000 nM
COc1cc(Nc2nccc(Nc3cnc4c(c3)CC3(CCCC3)CC4)n2)ccc1O[C@H]1C[C@H](N(C)C)C1 [Compound 79, 4-(7′,8′-dihydro-5′H-spiro[cyclopentane-1,6′-quinolin]-3′-ylamino)-2-{3-methoxy-4-[(1r,3r)-3-(dimethylamino)cyclobutoxy]phenylamino}pyrimidine] | ≤ 500 nM
CN(C)[C@H]1C[C@H](Oc2ccc(Nc3nccc(Nc4cnc5c(c4)CCCC5)n3)cc2)C1 [Compound 315, 2-{p-[(1r,3r)-3-(dimethylamino)cyclobutoxy]phenylamino}-4-(5,6,7,8-tetrahydro-3-quinolylamino)pyrimidine] | ≤ 500 nM
CN1CC(Oc2ccc(Nc3nccc(Nc4cnc5ccc(Cl)cc5c4)n3)cc2)C1 [Compound 294, 4-(6-chloro-3-quinolylamino)-2-[p-(1-methyl-3-azetidinyloxy)phenylamino] pyrimidine] | 2000 to 10000 nM

Molecule | IC50
COc1cc(Nc2nccc(Nc3cnc4cc(F)c(F)cc4c3)n2)cnc1N1CCNCC1 [Compound 478, 4-(6,7-difluoro-3-quinolylamino)-2-[5-methoxy-6-(1-piperazinyl)-3-pyridylamino]pyrimidine] | ≤ 500 nM
CN(C)[C@H]1C[C@H](Oc2ccc(Nc3nccc(Nc4cnc5ccccc5c4)n3)cc2Cl)C1 [Compound 35, 2-{3-chloro-4-[(1r,3r)-3-(dimethylamino)cyclobutoxy]phenylamino}-4-(3-quinolylamino)pyrimidine] | ≤ 500 nM
O=S1(=O)CCN(CCCOc2ccc(Nc3nccc(Nc4cnc5ccc(Br)cc5c4)n3)cc2)CC1 [Compound 206, 4-(3-{p-[4-(6-bromo-3-quinolylamino)-2-pyrimidinylamino]phenoxy}propyl)-1λ^6,4-thiazinane-1,1-dione] | ≤ 500 nM
COc1cc(Nc2nccc(Nc3cnc4c(c3)O[C@H]3CCC[C@@H]3O4)n2)ccc1O[C@H]1C[C@@H](N(C)C)C1 [Compound 192, 4-{(3S,7S)-2,8-dioxa-10-azatricyclo[7.4.0.03,7]trideca-1(13),9,11-trien-12-ylamino}-2-{3-methoxy-4-[(1s,3R)-3-(dimethylamino)cyclobutoxy]phenylamino}pyrimidine] | ≤ 500 nM
COc1cc(Nc2nccc(Nc3cnc4c(c3)CCC(C)C4)n2)ccc1OCCCN1CCCCC1 (stereo not drawn) [Compound 69, 2-[3-methoxy-4-(3-piperidinopropoxy)phenylamino]-4-(7-methyl-5,6,7,8-tetrahydro-3-quinolylamino)pyrimidine] | ≤ 500 nM
COc1cc(Nc2nccc(Nc3cnc4[nH]cc(Br)c4c3)n2)ccc1O[C@H]1C[C@@H](N(C)C)C1 [Compound 203, 4-(3-bromo-1H-1,7-diazainden-5-ylamino)-2-{3-methoxy-4-[(1s,3s)-3-(dimethylamino)cyclobutoxy]phenylamino}pyrimidine] | ≤ 500 nM
COc1ccc2cc(Nc3ccnc(Nc4ccc(OCCCN5CCS(=O)(=O)CC5)cc4)n3)cnc2c1 [Compound 400, 4-(3-{p-[4-(7-methoxy-3-quinolylamino)-2-pyrimidinylamino]phenoxy}propyl)-1λ^6,4-thiazinane-1,1-dione] | 500 to 2000 nM
COc1cc(Nc2nccc(Nc3ccc(Cl)nc3C(N)=O)n2)ccc1O[C@H]1C[C@@H](N(C)C)C1 [Compound 275, 6-chloro-3-(2-{3-methoxy-4-[(1s,3s)-3-(dimethylamino)cyclobutoxy]phenylamino}-4-pyrimidinylamino)-2-pyridinecarboxamide] | ≤ 500 nM
CN(C)[C@H]1C[C@@H](Oc2ccc(Nc3nccc(Nc4cnc5c(c4)OCCO5)n3)cc2C#N)C1 [Compound 43, 5-[4-(2,3-dihydro-1,4-dioxa-5-aza-7-naphthylamino)-2-pyrimidinylamino]-2-[(1s,3s)-3-(dimethylamino)cyclobutoxy] benzonitrile] | ≤ 500 nM
COc1cc(Nc2nccc(Nc3cnc4cc(F)c(F)cc4c3)n2)cnc1N1CCS(=O)(=O)CC1 [Compound 161, 4-(5-((4-((6,7-difluoroquinolin-3-yl)amino)pyrimidin-2-yl)amino)-3-methoxypyridin-2-yl)thiomorpholine 1,1-dioxide] | 500 to 2000 nM
CC1(C)CCc2ncc(Nc3ccnc(Nc4ccc(OCCCN5CCOCC5)cc4)n3)cc2C1 [Compound 63, 4-(6,6-dimethyl-5,6,7,8-tetrahydro-3-quinolylamino)-2-[p-(3-morpholinopropoxy)phenylamino] pyrimidine] | ≤ 500 nM
COc1cc(Nc2nccc(Nc3cnc4cc(C)ccc4c3)n2)ccc1OCCCN1CCCCC1 [Compound 98, 2-[3-methoxy-4-(3-piperidinopropoxy)phenylamino]-4-(7-methyl-3-quinolylamino)pyrimidine] | ≤ 500 nM
CN(C)[C@H]1C[C@H](Oc2ccc(Nc3nccc(Nc4cnc5ccc(Cl)cc5c4)n3)cc2)C1 [Compound 319, 4-(6-chloro-3-quinolylamino)-2-{p-[(1r,3r)-3-(dimethylamino)cyclobutoxy]phenylamino}pyrimidine] | ≤ 500 nM
COc1cc(Nc2nccc(Nc3cnc4c(c3)O[C@@H]3CCCC[C@@H]3O4)n2)ccc1O[C@H]1C[C@@H](N(C)C)C1 [Compound 190, 4-[(8aS,10aR)-5,6,7,8,8a, 10a-hexahydro-9,10-dioxa-1-aza-3-anthrylamino]-2-{3-methoxy-4-[(1s,3S)-3-(dimethylamino)cyclobutoxy]phenylamino}pyrimidine] | ≤ 500 nM
COc1cc(Nc2nccc(Nc3cnc4cc(OC(F)(F)F)ccc4c3)n2)ccc1O[C@H]1C[C@H](N(C)C)C1 [Compound 8, 2-{3-methoxy-4-[(1r,3r)-3-(dimethylamino)cyclobutoxy]phenylamino}-4-(7-trifluoromethoxy-3-quinolylamino)pyrimidine] | ≤ 500 nM
CC(O)C(=O)N1CCN(c2ccc(Nc3nccc(Nc4cnc5ccccc5c4)n3)cc2)CC1 (stereo not drawn) [Compound 465, 2-hydroxy-1-(4-{p-[4-(3-quinolylamino)-2-pyrimidinylamino]phenyl}-1-piperazinyl)-1-propanone] | ≤ 500 nM
